Values joined by “and” are separate entries in the source; they are usually repeats but may differ in a detail not shown here. Equal values may be shown once. “Also recorded” adds a separate entry of the source.

The subject of data set [1] is Gli-dependent luciferase reporter. Put plainly: Gli-dependent luciferase reporter (Gli-Luc) assay in M2 cells. Type of data set: cell-based, mouse. The note with it: for Induction of Gli reporter activity: ShhN 200 ng/ml, oxysterols 5 μM, TO 1 or 5 μM, 48 hours; for Gli reporter activity (synthetic oxysterols, FIG. 10): M2-10B4 Marrow Stromal Cells. The method, then: (§1) Cells were plated into 24-well plates and transfected the next day with Gli-dependent firefly luciferase and Renilla luciferase vectors and where indicated, Smo or Ptch expression vectors. […] Cells were treated for 48 hours prior to assessing luciferase activity using the Dual Luciferase Reporter Assay System (Promega, Madison, Wis.) according to manufacturer's instructions. Experiments were performed in triplicate and error bars indicate one standard deviation.
To further examine Hh pathway activation by oxysterols, a reporter assay using a luciferase reporter driven by a multimerized Gli-responsive element (5′-[…]-3′) (SEQ ID NO:4) was used.
A general note: Reporter assays use an easily measured gene product as a stand-in for the process of interest.

Data set [2] relates to M2-10B4 marrow stromal cells. Put plainly: Alkaline phosphatase activity assay in M2-10B4 marrow stromal cells. Type of data set: cell-based, mouse. As for the experimental part: (§2) The cells used are the pluripotent M2 cells (M2-10B4) that we previously characterized for their ability to become osteoblastiic and adipocyte cells. […] These cells are derived from bone marrow, are easy to maintain and last for many passages in vitro. […] Among the markers of osteogenic differentiation that were assayed were alkaline phosphatase activity, osteocalcin mRNA expression and mineral formation in cultures of marrow stromal cells.
We tested the effect of the synthetic oxysterols, oxy-1 through oxy-15, on alkaline phosphatase activity in M2-10B4 marrow stromal cells. Cells were treated with the oxysterols for 4 days after which they were collected and analyzed by colorimetric assay for alkaline phosphatase activity.

For data set [3], the system named is M2-10B4 marrow stromal cells. Briefly: 45Ca incorporation (mineralization) assay in M2-10B4 marrow stromal cells. Type of data set: cell-based, mouse. As for the experimental part:
as §2
We tested the effect of oxysterols on mineralization in M2-10B4 marrow stromal cells. Cells were treated with the oxysterols for 14 days after which the amount of mineral formed in the cultures was quantified using a radioactive ^45Ca incorporation assay.

For the next data set, the system named is rat femur periosteum. Put plainly: Rat periosteal femur model, bone formation scoring. Also on record: key to Bone formation Score, individual animal / Bone formation Score (radiograph scoring), individual animal: 4: Marked amount and contiguous on eriosteum; 3: Moderate amount and contiguous on eriosteum; 2: Small amount and contiguous on periosteum; 1: Small amount and small segments on periosteum; 0: None. Type of data set: in vivo. The note with it: for Bone formation score, Average / Bone formation score (radiograph scoring), Average: n=6. As for the experimental part: Male SD rats were treated for two weeks with Oxy13 (or a control vehicle). The Oxy13 was delivered by an Alzet pump to the perioseum, in three doses or by daily injections. The treatment regimens were: two weeks treatment, n=6 per group, vehicle and three Oxy 13 doses continuous and two doses daily injection; and four weeks treatment, vehicle and two Oxy 13 doses, n=6/group. The bone in-growth endpoints that were evaluated were microradiography, histomorphometry and blinded, randomized visual scoring.

The test system of a further data set is Gli-1 and Ptch mRNA. Briefly: Q-RT-PCR of hedgehog pathway genes in M2 cells. Type of data set: cell-based, mouse. The note with it: for Inhibition of oxysterol-induced Gli-1 and Ptch mRNA expression: M2 cells, SS 24 hours, pretreatment or co-treatment with agent. The method, then:
Q-RT-PCR was performed using reverse-transcribed RNA isolated from M2 cells using phenol/chloroform method. PCR reactions were performed using iQ SYBR Green Supermix and an iCycler RT-PCR Detection System (BIO-RAD Laboratories, Hercules, Calif.). Primer sequences for Gli-1, Gli-2, Gli-3, Shh and Ihh were kindly provided by Dr. Fanxin Long (Washington University, St. Louis, Mo.). Ptch and Smo primer sequences are available upon request. Q-RT-PCR data were normalized to cyclophilin expression and relative expression levels were calculated using the […] method (Livak et al. (2001) Methods 25, 402-408).

The next data set relates to pMARCKS, pPKA, pCREB. Put plainly: Western blotting of phosphorylated proteins in M2 cell lysates. Type of data set: cell-based, mouse. The note with it: SS 5 μM 10 min to 48 hours; PMA 30 min. As for the experimental part: After treatments, cells were lysed in lysis buffer, protein concentrations determined using the Bio-Rad protein assay (Hercules, Calif.), and SDS-PAGE was performed, probing for native and phosphorylated proteins.
We previously reported that oxysterol-induced osteoblastic differentiation of cells is mediated via protein kinase C (PKC)- and protein kinase A (PKA)-dependent mechanisms. The role of these signaling pathways in regulating the different markers of osteoblastic differentiation appears to be both specific and overlapping. To begin elucidating the possible role of PKC and PKA in mediating oxysterol-induced Hh pathway activation, we examined the effect of PKC and PKA inhibitors on markers of Hh pathway activation. […] Similarly, oxysterol-induced Gli-1 and Ptch expression was inhibited in cells whose PKC stores were depleted following overnight pretreatment with 1 μM PMA (FIG. 6c,d). We next examined whether oxysterols induced PKC activation by assessing the levels of phosphorylated MARCKS (pMARCKS), a PKC substrate, by Western blotting.
To examine the possible role of PKA in oxysterol-induced Hh pathway activation, the effect of PKA inhibitor, H-89, previously found to inhibit the induction of some, but not all, markers of osteoblastic differentiation, on oxysterol-induced Gli-1 and Ptch mRNA expression was assessed by Q-RT-PCR.
For orientation: A western blot detects proteins with antibodies after separation by electrophoresis.

A further data set has as its system osteocalcin (OCN) mRNA. The note with it: 4 μM pre-treatment, 5 μM SS 8 days. As for the experimental part: (§3) Colorimetric alkaline phosphatase activity assay on whole cell extracts and Northern blotting for OCN and 18S rRNA were performed by conventional procedures. Gene expression was quantified using a Storm840 phosphorimager and ImageQuant software (Amersham, Piscataway, N.J.).

For data set [4], the system named is Gli-dependent luciferase reporter. The note with it: 4 μM pre-treatment. As for the experimental part:
as §1

In data set [5] the test system is Runx2 DNA binding activity.
Procedure: Oligonucleotides were annealed to their complementary sequences by boiling and cooling. The probes were end-labeled with γ^32P-ATP using polynucleotide kinase and column purified. […] Nuclear extracts (10 μg) were incubated in binding buffer (10 mM Tris pH 7.5, 100 mM NaCl, 1 mM DTT, 1 mM EDTA, 4% glycerol), 1 μg poly(dIdC) and 0.2 ng of labeled probe for 20 minutes at room temperature, and complexes were resolved on a cooled, 6% acrylamide 1×TBE gel. Subsequently, gels were dried and exposed to film.
The subject of the next data set is Smo−/− MEFs. Briefly: Alkaline phosphatase assay in Smo-/- mouse embryonic fibroblasts. Type of data set: cell-based. The note with it: two days; BMP-7 50 ng/ml. The method, then:
as §3

Setting [6] is: Mus musculus, M210B4, 96 h, read-out: Fold Induction over Control Untreated Cells (alkaline phosphatase activity).
The mark [7] stands for this setting: Mus musculus, M210B4, 336 h, read-out: 45Ca Incorporation (fold induction over control untreated cells).

In the case of `CC(C)CCC[C@@H](C)[C@H]1CC[C@H]2[C@@H]3C(=O)C=C4C[C@@H](O)CC[C@]4(C)[C@H]3CC[C@]12C` [7-ketocholesterol, reference compound], the “Induction of Gli reporter activity” value in [1] was “not observed”.
Still for that read-out and setting: for `CC(C)CCC[C@@H](C)[C@H]1CC[C@H]2[C@@H]3[C@H](O)C=C4C[C@@H](O)CC[C@]4(C)[C@H]3CC[C@]12C` [7-α-hydroxycholesterol, reference compound] the value was “not observed”.
On to `Cc1cccc(C[C@](C)(O)C2CCC3C4CC=C5C[C@@H](O)CC[C@]5(C)C4CC[C@@]32C)c1` (some centres unmarked) [Oxy11], for which the “Fold Induction over Control Untreated Cells (alkaline phosphatase activity)” value in data set [2] (2.5 μM, 4 days) came to 6 fold. The “Gli reporter activity (synthetic oxysterols, FIG. 10)” value in data set [1] is on record as “stimulate the Gli1 reporter; also recorded: stimulation of Gli reporter activity”.
As for `CC(C)CCCC[C@](C)(O)[C@H]1CC[C@H]2[C@@H]3CC=C4C[C@@H](O)CC[C@]4(C)[C@H]3CC[C@@]21C` [Oxy12, (3S,8S,9S,10R,13S,14S,17S)-2,3,4,7,8,9,10,11,12,13,14,15,16,17-tetradecahydro-17-((S)-2-hydroxy-7-methyloctan-2-yl)-10,13-dimethyl-1H-cyclopenta[a]phenanthren-3-ol], in [2] (setting [6]), the fold induction at 5 µM amounted to 22 and the fold induction at 10 µM was 80. In addition, in data set [3] (setting [7]), the fold induction at 5 µM was 2, the fold induction at 10 µM was determined as 4 and the fold induction at 15 µM amounted to 7. For the same molecule, the “Gli reporter activity (synthetic oxysterols, FIG. 10)” value in [1] is “stimulate the Gli1 reporter; also recorded: stimulation of Gli reporter activity”.
For the molecule `C=C(C)CCC[C@](C)(O)[C@H]1CC[C@H]2[C@@H]3CC=C4C[C@@H](O)CC[C@]4(C)[C@H]3CC[C@@]21C` [Oxy13, (3S,8S,9S,10R,13S,14S,17S)-2,3,4,7,8,9,10,11,12,13,14,15,16,17-tetradecahydro-17-((S)-2-hydroxy-6-methylhept-6-en-2-yl)-10,13-dimethyl-1H-cyclopenta[a]phenanthren-3-ol], in data set [2] (setting [6]), the fold induction at 2.5 µM was 200 and the fold induction at 5 µM was found to be 334. Moreover, in data set [3] (setting [7]), the fold induction at 5 µM turned out to be 5, the fold induction at 10 µM stood at 34 and the fold induction at 15 µM was 38. For the same molecule, in the data set with rat femur periosteum (Pump 2 wk 0.167 mg/ml), the “Bone formation Score, individual animal” value came to 3 and the “Bone formation score, Average” value turned out to be 3.00. Also, in the data set on rat femur periosteum (Pump 2 wk 1.67 mg/ml), the “Bone formation Score, individual animal” value is 1 and 4 (3×) and 3 and 2; the “Bone formation score, Average” value stood at 3.00. For the same molecule, in the data set on rat femur periosteum (Pump 4 wk 0.167 mg/ml), the “Bone formation Score (radiograph scoring), individual animal” value is 0 and 2 (3×) and 3 (2×); the “Bone formation score (radiograph scoring), Average” value was found to be 2.00. For the same molecule, in the data set with rat femur periosteum (Pump 4 wk 1.67 mg/ml), the “Bone formation Score (radiograph scoring), individual animal” value is 2 (2×) and 3 and 1 (2×) and 0; the “Bone formation score (radiograph scoring), Average” value turned out to be 1.50. Besides, the “Gli reporter activity (synthetic oxysterols, FIG. 10)” value in [1] is listed as “stimulate the Gli1 reporter; also recorded: stimulation of Gli reporter activity”.
With `CC(C)CCC[C@](C)(O)[C@H]1CC[C@H]2[C@@H]3CC=C4C[C@@H](O)CC[C@]4(C)[C@H]3CC[C@@]21C` [Oxy 20S, 20(S)-hydroxycholesterol, reference compound], the fold induction at 7.5 µM in data set [3] (setting [7]) came out at 4.
Consider `O=S(=O)(NCCNC/C=C/c1ccc(Br)cc1)c1cccc2cnccc12` [Oxy H-89, H-89], for which the “Inhibition of oxysterol-induced Gli-1 and Ptch mRNA expression” value in the data set on Gli-1 and Ptch mRNA is listed as “did not inhibit”.
Turning to `CCCCCCCCCCCCCC(=O)O[C@@H]1[C@@H](C)[C@@]2(O)[C@@H](C=C(CO)C[C@]3(O)C(=O)C(C)=C[C@@H]23)[C@@H]2C(C)(C)[C@]12OC(C)=O` [PMA, Phorbol 12-Myristate 13-Acetate], the “Inhibition of oxysterol-induced Gli-1 and Ptch mRNA expression” value with Gli-1 and Ptch mRNA was “inhibited”. Moreover, the “Phosphorylated MARCKS (pMARCKS) levels” value with pMARCKS, pPKA, pCREB is reported as “clearly induced MARCKS phosphorylation”.
Consider `O=S(=O)(c1ccccc1)N(CC(F)(F)F)c1ccc(C(O)(C(F)(F)F)C(F)(F)F)cc1` [TO-901317, reference compound], for which, in data set [1], the “Induction of Gli reporter activity” value is recorded as “no activation”.
Turning to `CC1=C2C[C@H]3[C@@H](CC=C4C[C@@H](O)CC[C@@]43C)[C@@H]2CC[C@]12O[C@@H]1C[C@H](C)CN[C@H]1[C@H]2C` [cyclopamine, reference compound], the “Inhibition of SS-induced ALP activity” value in data set [2] (M2 cells, 5 μM SS, 3 days) is on record as “significantly inhibited”. Further, in data set [3] (4 μM pre-treatment, 5 μM SS 14 days), the “Inhibition of oxysterol-increased mineralization” value is on record as “inhibited”. Further, in data set [1] (pre-treatment 2 hours, 4 μM), the “Inhibition of oxysterol- or ShhN-induced Gli-luc activity” value is reported as “inhibited”. Also, in the data set on osteocalcin (OCN) mRNA, the “Inhibition of oxysterol-induced OCN expression” value is on record as “inhibited”. Moreover, the “Inhibition of oxysterol-induced Gli-luc activity in C3H10T½ cells” value in [4] is given as “inhibited”. Moreover, the “Inhibition of oxysterol-stimulated Runx2 DNA binding activity” value in data set [5] was “completely inhibited”.
For `CC(=O)c1c(O)c(C)c(O)c(Cc2c(O)c3c(c(C(=O)/C=C/c4ccccc4)c2O)OC(C)(C)C=C3)c1O` [rottlerin], the “Inhibition of oxysterol-induced Gli-1 and Ptch mRNA expression” value with Gli-1 and Ptch mRNA is reported as “dose-dependently inhibited”. Moreover, the “Effect of agent alone on Gli-1 and Ptch gene expression” value in the data set on Gli-1 and Ptch mRNA (all concentrations tested, without SS) is reported as “no significant effect on gene expression”.

B1: BMB-7: bone morphogenetic protein 7 (protein, UniProt P18075 293-431, looked up)
Bone morphogenetic protein 7: STGSKQRSQNRSKTPKNQEALRMANVAENSSSDQRQACKKHELYVSFRDLGWQDWIIAPEGYAAYYCEGECAFPLNSYMNATNHAIVQTLVHFINPETVPKPCCAPTQLNAISVLYFDDSSNVILKKYRNMVVRACGCH
With B1, the “ALP activity / osteoblastic differentiation in Smo−/− MEFs” value in the data set with Smo−/− MEFs is recorded as “did induce ALP activity”.
